pIC50: −log10 of the molar value. Values belong to the compound of their own block, whether it stands above or below them.
How the values were obtained:
MCF7 = experiment: Antiproliferative activity against human MCF7 cells assessed as inhibition of cell growth; format: functional, cell-based
[1] = Cytotoxicity against human HEK293 cells assessed as inhibition of cell growth; format: toxicity, cell-based
HeLa [2] = experiment: Antiproliferative activity against human HeLa cells assessed as inhibition of cell growth; format: functional, cell-based
A549 [3] = experiment: Antiproliferative activity against human A549 cells assessed as inhibition of cell growth; format: functional, cell-based
SW-620 = experiment: Growth inhibition of human SW620 cells assessed as reduction in cell viability; format: functional
DU-145 = experiment: Growth inhibition of human DU-145 cells assessed as reduction in cell viability; format: functional
SK-OV-3 [4] = experiment: Growth inhibition of human SK-OV-3 cells assessed as reduction in cell viability; format: functional
M14 = experiment: Growth inhibition of human M14 cells assessed as reduction in cell viability; format: functional
A498 = experiment: Growth inhibition of human A498 cells assessed as reduction in cell viability; format: functional
U-251 = experiment: Growth inhibition of human U-251 cells assessed as reduction in cell viability; format: functional
NCI/ADR-RES = experiment: Growth inhibition of human MCF7ADR cells assessed as reduction in cell viability; format: functional
NCI-H522 = experiment: Growth inhibition of human NCI-H522 cells assessed as reduction in cell viability; format: functional
K562 [5] = experiment: Antiproliferative activity against human K562 cells incubated by 48 hrs by MTT assay; format: functional, cell-based; settings: K562, 48 h
A549 [6] = experiment: Antiproliferative activity against human A549 cells incubated by 48 hrs by MTT assay; format: functional, cell-based; settings: A549, 48 h
PC-3 = experiment: Antiproliferative activity against human PC-3 cells incubated by 48 hrs by MTT assay; format: functional, cell-based; settings: PC-3, 48 h
HepG2 [7] = experiment: Antiproliferative activity against human HepG2 cells incubated by 48 hrs by MTT assay; format: functional, cell-based; settings: HepG2, 48 h
PANC-1 = experiment: Antiproliferative activity against human PANC-1 cells; format: functional, cell-based
MDA-MB-231 = experiment: Antiproliferative activity against human MDA-MB-231 cells; format: functional, cell-based
HT-29 = experiment: Antiproliferative activity against human HT-29 cells; format: functional, cell-based
[8] = Cytotoxicity activity against human HDF cells; format: toxicity, cell-based; settings: HDF cells (NHDF)
[9] = Antiproliferative activity against human HL7702 cells assessed as inhibition of cell viability; format: toxicity, cell-based; settings: HL7702 (L02) cells
A549 [10] = experiment: Antiproliferative activity against human A549 cells assessed as inhibition of cell viability; format: functional, cell-based
A549/CDDP = experiment: Antiproliferative activity against human A549/DDP cells assessed as inhibition of cell viability; format: functional, cell-based
Hep 3B2 [11] = experiment: Antiproliferative activity against human Hep3B cells measured after 48 hrs by MTT assay; format: functional, cell-based
K562 [12] = experiment: Antiproliferative activity against human K562 cells incubated for 48 hrs; format: functional, cell-based; settings: K562, 48 h
CT26 = experiment: Antiproliferative activity against mouse CT26 cells incubated for 48 hrs; format: functional, cell-based; settings: CT26, 48 h
HeLa [13] = experiment: Antiproliferative activity against human HeLa cells incubated for 48 hrs; format: functional, cell-based
MGC-803 = experiment: Antiproliferative activity against human MGC-803 cells measured after 48 hrs by MTT assay; format: functional, cell-based; settings: MGC-803, 48 h
MOLT-4 = experiment: Anticancer activity against human MOLT-4 cells measured after 48 hrs; format: functional, cell-based; settings: MOLT-4, 48 h
[14] = Antiproliferative activity against human HL7702 cells measured after 48 hrs by MTT assay; format: toxicity, cell-based; settings: HL7702 (L02) cells
[15] = Antiproliferative activity against human HL7702 cells assessed as inhibition of cell growth; format: toxicity, cell-based; settings: HL7702 (L02) cells
A549 [16] = experiment: Antiproliferative activity against human A549 cells assessed as cell growth inhibition; format: functional, cell-based
Bel-7402 = experiment: Antiproliferative activity against human Bel-7402 cells measured after 48 hrs by MTT assay; format: functional, cell-based; settings: Bel-7402, 48 h
T-24 [17] = experiment: Antiproliferative activity against human T24 cells assessed as inhibition of cell growth; format: functional, cell-based
K562 [18] = experiment: Anticancer activity against human K562 cells measured after 48 hrs; format: functional, cell-based; settings: K562, 48 h
SK-OV-3 [19] = experiment: Antiproliferative activity against human SK-OV-3 cells assessed as inhibition of cell growth; format: functional, cell-based
HL-60 = experiment: Anticancer activity against human HL-60 cells measured after 48 hrs; format: functional, cell-based; settings: HL-60, 48 h
HepG2 [20] = experiment: Antiproliferative activity against human HepG2 cells measured after 48 hrs by MTT assay; format: functional, cell-based; settings: HepG2, 48 h
T-24 [21] = experiment: Antiproliferative activity against human T24 cells measured after 48 hrs by MTT assay; format: functional, cell-based; settings: T-24, 48 h
HepG2 [22] = experiment: Antiproliferative activity against human HepG2 cells assessed as inhibition of cell growth; format: functional, cell-based
HeLa [23] = experiment: Antiproliferative activity against human HeLa cells assessed as cell growth inhibition; format: functional, cell-based
Hep 3B2 [24] = experiment: Anticancer activity against human Hep3B cells measured after 48 hrs; format: functional, cell-based

Structure (SMILES): O=c1c2ccccc2nc2n1-c1ccccc1[C@@]2(O)OCCOc1ccccc1
GI50 (SW-620): > 100 µM
GI50 (DU-145): > 100 µM
GI50 (SK-OV-3 [4]): > 100 µM
GI50 (M14): > 100 µM
GI50 (A498): > 100 µM
GI50 (U-251): > 100 µM
GI50 (NCI/ADR-RES): > 100 µM
GI50 (NCI-H522): > 100 µM

Structure (SMILES): O=C1c2cc(C(F)(F)F)ccc2-n2c1nc1ccccc1c2=O
pIC50 (Hep 3B2 [11]): 5.47

Structure (SMILES): N#Cc1ccc(-c2csc(N/N=C3/c4ccccc4N4C(=O)C5C=CC=CC5=NC34)n2)cc1 (centres undefined)
pIC50 (MCF7): 5.22
pIC50 [1]: 4.03
pIC50 (HeLa [2]): 5.15
pIC50 (A549 [3]): 5.09

Structure (SMILES): CN(C)c1ccc2c(c1)C(=O)c1nc3ccccc3c(=O)n1-2
pIC50 (Hep 3B2 [11]): 5.05

Structure (SMILES): O=C1C2C=CC=CC2=NC2/C(=N\Nc3nc(-c4ccc(Cl)cc4)cs3)c3ccccc3N12 (centres undefined)
pIC50 (MCF7): 4.74
pIC50 [1]: 4.09
pIC50 (HeLa [2]): 4.66
pIC50 (A549 [3]): 4.96

Structure (SMILES): Nc1ccc2c(c1)C(=O)c1nc3ccccc3c(=O)n1-2
GI50 (SW-620): 25 µM
GI50 (DU-145): 8 µM
GI50 (SK-OV-3 [4]): 25 µM
GI50 (M14): 15 µM
GI50 (A498): 2 µM
GI50 (U-251): 4.5 µM
pIC50 (Hep 3B2 [11]): 5.24
GI50 (NCI/ADR-RES): 1 µM
GI50 (NCI-H522): 48 µM

Structure (SMILES): COc1cc(/C=C/C(=O)CC(=O)/C=C/c2ccc(O)c(OC)c2)ccc1O [CURCUMIN]
pIC50 [9]: < 4.00
pIC50 (A549 [10]): 4.45
pIC50 (A549/CDDP): 4.17

Structure (SMILES): COc1cccc2c1C(=O)c1c(O)c3c(c(O)c1C2=O)C[C@@](O)(C(=O)CO)C[C@@H]3O[C@H]1C[C@H](N)[C@H](O)[C@H](C)O1 [DOXORUBICIN]
pIC50 (Hep 3B2 [24]): 6.59

Now from value to compound, other results behind:

pIC50 (MCF7): 4.99
pIC50 (HeLa [2]): 5.02
pIC50 (A549 [3]): 5.18
Structure (SMILES): O=C1C2C=CC=CC2=NC2/C(=N\Nc3nc(-c4ccc(F)cc4)cs3)c3ccccc3N12 (centres undefined)
pIC50 [1]: 4.06

pIC50 (K562 [5]): 5.16
pIC50 (A549 [6]): 5.26
pIC50 (PC-3): 4.91
pIC50 (HepG2 [7]): 5.20
Structure (SMILES): O=C1c2ccccc2-n2c1nc1cccc(F)c1c2=O

pIC50 (PANC-1): 4.02
pIC50 (MDA-MB-231): 4.09
pIC50 (HT-29): 4.19
Structure (SMILES): Cc1nn(Br)c2c1[C@@]1(C(C#N)=CO2)c2cc(-c3cccc(Cl)c3)ccc2-n2c1nc1ccccc1c2=O
pIC50 [8]: < 4.00

pIC50 (A549 [10]): 4.20
pIC50 (A549/CDDP): 4.28
Structure (SMILES): O=C(CCCCN(Cc1ccccn1)Cc1ccccn1)Nc1ccc2c(c1)C(=O)c1nc3ccccc3c(=O)n1-2
pIC50 [9]: < 4.00

pIC50 (K562 [5]): 5.48
pIC50 (A549 [6]): 5.67
pIC50 (PC-3): 4.98
pIC50 (HepG2 [7]): 5.01
Structure (SMILES): O=C1c2cc(F)c(F)cc2-n2c1nc1ccccc1c2=O

GI50 (SW-620): > 100 µM
GI50 (DU-145): > 100 µM
GI50 (SK-OV-3 [4]): > 100 µM
GI50 (U-251): > 100 µM
GI50 (NCI-H522): > 100 µM
Structure (SMILES): CCCC[C@]1(O)c2ccccc2-n2c1nc1ccccc1c2=O
GI50 (M14): > 100 µM
GI50 (A498): > 100 µM
GI50 (NCI/ADR-RES): > 100 µM

pIC50 (K562 [12]): 4.99
pIC50 (CT26): < 4.30
pIC50 (HeLa [13]): < 4.30
Structure (SMILES): Cc1ccc2c(c1)[C@@]1(N[C@H](C(=O)NCC(=O)O)[C@]3(c4ccccc4)[C@@H](c4ccccc4)[C@]13c1ccccc1)c1nc3ccccc3c(=O)n1-2

pIC50 (K562 [5]): 5.43
pIC50 (A549 [6]): 5.19
pIC50 (PC-3): 5.15
pIC50 (HepG2 [7]): 5.23
Structure (SMILES): O=C1c2cccc(F)c2-n2c1nc1ccccc1c2=O

pIC50 (PANC-1): < 4.00
pIC50 (MDA-MB-231): 4.28
pIC50 (HT-29): 4.01
Structure (SMILES): Cc1n[nH]c2c1[C@@]1(C(C#N)=CO2)c2cc(-c3cccc(Cl)c3)ccc2-n2c1nc1ccccc1c2=O
pIC50 [8]: < 4.00

pIC50 (K562 [12]): < 4.30
pIC50 (CT26): 5.00
pIC50 (HeLa [13]): 4.48
Structure (SMILES): O=C(O)CNC(=O)[C@H]1N[C@@]2(c3ccccc3-n3c2nc2ccccc2c3=O)[C@@]2(c3ccccc3)[C@H](c3ccccc3)[C@@]12c1ccccc1

pIC50 (MGC-803): 4.23
pIC50 (MOLT-4): 5.10
GI50 (SW-620): 4.8 µM
pIC50 (A549 [16]): 4.05
pIC50 (Bel-7402): 4.57
GI50 (DU-145): 2 µM
pIC50 (K562 [18]): 5.30
pIC50 (SK-OV-3 [19]): 4.05
pIC50 (HL-60): 5.70
pIC50 (HepG2 [20]): 4.00
GI50 (U-251): 0.7 µM
pIC50 (HepG2 [22]): 4.05
pIC50 (HeLa [23]): < 3.82
GI50 (NCI-H522): 5 µM
Structure (SMILES): O=C1c2cc(Br)ccc2-n2c1nc1ccccc1c2=O
IC50 at 48 h [14]: 50.1 µM
pIC50 [15]: 4.30
pIC50 (T-24 [17]): 4.03
GI50 (M14): 5 µM
pIC50 (Hep 3B2 [11]): 5.70
GI50 (NCI/ADR-RES): 5 µM
pIC50 (T-24 [21]): 4.82

pIC50 (Hep 3B2 [24]): 5.05
Structure (SMILES): O=C1c2ccccc2-n2c1nc1ccc(Br)cc1c2=O
